ChEMBL document CHEMBL1122856, “Study on the inhibition of adenosine deaminase” (J Med Chem, 1985)

Biological target: T1, Adenosine deaminase (Bos taurus, UniProt P56658)
T1 sequence (P56658 whole entry): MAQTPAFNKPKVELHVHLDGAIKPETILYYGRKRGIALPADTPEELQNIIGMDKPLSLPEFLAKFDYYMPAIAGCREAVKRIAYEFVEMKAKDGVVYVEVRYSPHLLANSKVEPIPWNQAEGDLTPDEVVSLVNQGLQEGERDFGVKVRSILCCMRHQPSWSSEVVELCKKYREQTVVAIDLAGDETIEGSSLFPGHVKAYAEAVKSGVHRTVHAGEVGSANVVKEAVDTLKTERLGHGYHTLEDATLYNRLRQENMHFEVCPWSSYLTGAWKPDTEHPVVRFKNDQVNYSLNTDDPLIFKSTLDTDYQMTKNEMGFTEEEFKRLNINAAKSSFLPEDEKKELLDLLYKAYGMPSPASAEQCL
Experiment: Ability to inhibit the deamination of adenosine by calf intestine adenosine deaminase

Cc1c([C@@H](C)O)ncn1C1O[C@H](CO)[C@@H](O)[C@H]1O (stereo partly specified) gave a Ki of 61 µM.
